Measured values published in publication PMC3326631, “Synthesis and biological evaluation of nojirimycin- and pyrrolidine-based trehalase inhibitors” (Beilstein Journal of Organic Chemistry, 2012).
“Also recorded” adds a separate entry of the source. Where two headings read alike, the source gives them in different places.

What was measured:
C. riparius trehalase = C. riparius trehalase (Chironomus riparius, UniProt J7EJ73); assay: Trehalase inhibition, coupled assay with glucose-6-phosphate dehydrogenase and hexokinase (insect enzyme); type: biochemical; settings: for selectivity between insect and porcine trehalase (times more active): C. riparius trehalase versus porcine kidney trehalase, from IC50 values; for inhibitory activity against insect trehalase (in words): screening at fixed concentration of 1 mM; for IC50 C. riparius trehalase: trehalose fixed close to Km (0.5 mM), 30 °C, mean ± SE of three independent experiments
Experimental: (§1) Trehalase activity was measured through a coupled assay with glucose-6-phosphate dehydrogenase and hexokinase according to Wegener et al.. To examine the potential of each compound as a trehalase inhibitor, screening assays of potential inhibitors were carried out at a fixed concentration of 1 mM. […] Initial rates as a function of inhibitor concentration were fitted to the following equation: […]
(§2) where νi and ν are the initial rate in the presence and in the absence of the inhibitor, respectively, [I] is the inhibitor concentration, IC50 is the inhibitor concentration producing half-maximal inhibition, and n is the Hill coefficient.
(§3) All enzyme assays were performed in triplicate at 30 °C by using sample volumes varying from 5 to 20 µL in 1 mL test tubes and using a Cary3 UV–vis spectrophotometer. Enzyme activities were analyzed by Cary Win UV application software for Windows XP. The specific activity (U mg^−1) was expressed as µmol min^−1(mg protein)^−1. Values were expressed as mean ± SE of replicated.

porcine kidney trehalase [1] = target: T1, porcine kidney trehalase (Sus scrofa, UniProt I3LIR5); settings: mean ± SE, cited from earlier work
T1 construct: trehalases from porcine kidney and insects have different recognition requirements; from tissue; host or cells: porcine kidney
T1 sequence (I3LIR5 24-583): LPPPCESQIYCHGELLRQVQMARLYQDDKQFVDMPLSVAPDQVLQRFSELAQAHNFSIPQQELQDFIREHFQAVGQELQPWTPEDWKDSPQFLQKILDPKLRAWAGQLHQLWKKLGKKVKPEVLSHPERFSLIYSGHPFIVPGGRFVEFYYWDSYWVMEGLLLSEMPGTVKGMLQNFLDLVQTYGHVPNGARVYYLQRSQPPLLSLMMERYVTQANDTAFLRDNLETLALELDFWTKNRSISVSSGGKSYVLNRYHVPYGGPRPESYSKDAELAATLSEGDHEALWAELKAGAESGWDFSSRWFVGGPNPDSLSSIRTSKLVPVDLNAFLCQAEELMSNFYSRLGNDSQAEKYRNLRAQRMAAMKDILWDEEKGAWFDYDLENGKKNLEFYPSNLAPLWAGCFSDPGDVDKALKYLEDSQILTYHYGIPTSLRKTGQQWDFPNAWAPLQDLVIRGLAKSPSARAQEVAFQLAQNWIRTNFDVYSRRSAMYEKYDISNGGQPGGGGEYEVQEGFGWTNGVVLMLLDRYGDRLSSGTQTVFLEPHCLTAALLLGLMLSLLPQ

porcine kidney trehalase [2] = target: T1, porcine kidney trehalase; assay: Trehalase inhibition, coupled assay with glucose-6-phosphate dehydrogenase and hexokinase (porcine enzyme); type: biochemical; settings: for inhibitory activity against porcine trehalase (in words): screening at fixed concentration of 1 mM; for IC50 porcine kidney trehalase / IC50: trehalose fixed close to Km (2.5 mM), 30 °C, mean ± SE of three independent experiments
Experimental: Synthesized compounds 10, 12–14, 16, 17 and 19–21 were tested for their inhibitory activity against insect (C. riparius) and porcine kidney trehalase.
as §1, with “Even if the synthesis unexpectedly afforded a structurally quite heterogeneous set of compounds, biological data give some hints toward the design of selective inhibitors of trehalases of different origin. Trehalase” for “Trehalase”
as §2, §3

Sequence of C. riparius trehalase (J7EJ73 entry or part of it): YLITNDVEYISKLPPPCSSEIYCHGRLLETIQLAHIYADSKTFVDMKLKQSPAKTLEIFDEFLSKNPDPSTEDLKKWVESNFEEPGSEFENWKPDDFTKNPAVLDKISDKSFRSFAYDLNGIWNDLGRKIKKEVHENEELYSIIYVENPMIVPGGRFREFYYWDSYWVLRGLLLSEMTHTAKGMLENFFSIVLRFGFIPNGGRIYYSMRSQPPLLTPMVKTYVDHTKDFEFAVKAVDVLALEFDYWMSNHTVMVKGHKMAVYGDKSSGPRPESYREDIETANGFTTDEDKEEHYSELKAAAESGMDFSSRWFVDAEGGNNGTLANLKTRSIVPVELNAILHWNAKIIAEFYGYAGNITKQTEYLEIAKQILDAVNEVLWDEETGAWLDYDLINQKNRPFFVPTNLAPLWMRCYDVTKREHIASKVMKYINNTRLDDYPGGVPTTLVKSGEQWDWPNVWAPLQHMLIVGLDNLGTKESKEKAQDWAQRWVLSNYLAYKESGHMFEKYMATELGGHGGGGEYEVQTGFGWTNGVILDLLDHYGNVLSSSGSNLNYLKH

Row | inhibitory activity against porcine trehalase (in words) (porcine kidney trehalase [2]) | IC50 porcine kidney trehalase (porcine kidney trehalase [2]) | inhibitory activity against insect trehalase (in words) (C. riparius trehalase) | Structure (SMILES) | selectivity between insect and porcine trehalase (times more active) (C. riparius trehalase) | further results
1 | active |  |  | CCC[C@H]1N[C@H](CO)[C@@H](O)[C@H](O)[C@H]1O [Compound 13] | around ten times more active towards insect trehalase; also recorded: ten-fold selectivity towards insect trehalase | IC50 (porcine kidney trehalase [2]): 109 ± 38 µM
2 | no activity | no inhibition | inhibitors only of insect trehalase | CCC[C@H]1N[C@H](CO)[C@@H](O)[C@@H]1O [Compound 14] |  | 
3 | do not possess any activity | no inhibition | do not possess any activity | CCC[C@@H]1N[C@H](CO)[C@@H](O)[C@H]1O [Compound 17] |  | IC50 C. riparius trehalase (C. riparius trehalase): no inhibition
4 |  | no inhibition |  | CCCCCCCC[C@H]1N[C@H](CO)[C@@H](O)[C@@H]1O [Compound 21] |  | IC50 C. riparius trehalase (C. riparius trehalase): no inhibition

The remaining lines, values behind:

Row | Structure (SMILES) | inhibitory activity against porcine trehalase (in words) (porcine kidney trehalase [2]) | IC50 porcine kidney trehalase (porcine kidney trehalase [2]) | inhibitory activity against insect trehalase (in words) (C. riparius trehalase) | selectivity between insect and porcine trehalase (times more active) (C. riparius trehalase) | further results
5 | OC[C@H]1NC[C@H](O)[C@@H](O)[C@@H]1O [Compound 7, 1-deoxynojirimycin, reference compound] |  |  |  | only twice as active on insect trehalase | IC50 (porcine kidney trehalase [1]): 5.96 ± 0.62 µM
6 | CC[C@@H]1[C@H](O)[C@@H](O)[C@H](O)[C@@H](CO)N1C(=O)NCc1ccccc1 [Compound 8] |  |  |  |  | IC50 (porcine kidney trehalase [1]; trehalose fixed at Km): 100 ± 8.82 µM
7 | OC[C@H]1NC[C@@H](O)[C@@H]1O [Compound 9, DAB-1, reference compound] |  |  |  | twice more active on porcine trehalase | IC50 (porcine kidney trehalase [1]; trehalose fixed at Km): 10.6 ± 2.42 µM
8 | CCC[C@@H]1[C@H](O)[C@@H](O)[C@H](O)[C@@H](CO)N1C(=O)NCc1ccccc1 [Compound 10] | no activity | no inhibition | inhibitors only of insect trehalase |  | 
9 | NC(=O)N1C[C@H](O)[C@@H](O)[C@H](O)[C@H]1CO [Compound 12] | active |  |  | five times | IC50 (porcine kidney trehalase [2]): 154 ± 17 µM
10 | CCC[C@@H]1[C@@H](O)[C@H](O)[C@@H](CO)N1C(N)=O [Compound 16] | no activity | no inhibition | inhibitors only of insect trehalase |  | 
11 | CCC[C@H]1[C@H](O)[C@H](O)[C@@H](CO)N1C(N)=O [Compound 19] | do not possess any activity | no inhibition | do not possess any activity |  | IC50 C. riparius trehalase (C. riparius trehalase): no inhibition
12 | CCCCCCCCN1C[C@@H](O)[C@H](O)[C@H]1CO [Compound 20] | active |  |  |  | IC50 (porcine kidney trehalase [2]): 537 ± 80 µM
